From patent US8362000B2, “Azetidinyl diamides as monoacylglycerol lipase inhibitors” (Janssen Pharmaceutica NV, priority 2009, dated 2013)
Changes are numbered by the printed parent chain. Where two headings read alike, the source gives them in different places.

How the values were obtained:
[1] = target: T1, purified wild type MGL (wt-MGLL 6H-11-313) (Homo sapiens, UniProt Q99685)
T1 sequence (Q99685 1-303): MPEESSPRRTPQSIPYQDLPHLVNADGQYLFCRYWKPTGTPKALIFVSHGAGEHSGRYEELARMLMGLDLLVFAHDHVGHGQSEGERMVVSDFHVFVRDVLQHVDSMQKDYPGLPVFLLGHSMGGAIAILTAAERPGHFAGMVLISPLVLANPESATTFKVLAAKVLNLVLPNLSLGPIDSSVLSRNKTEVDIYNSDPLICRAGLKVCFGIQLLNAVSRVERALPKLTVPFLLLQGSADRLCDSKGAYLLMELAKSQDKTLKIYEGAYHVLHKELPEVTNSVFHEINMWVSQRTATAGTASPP

mutant MGL = target: T2, mutant MGL (Homo sapiens, UniProt Q99685, L169S/L176S); test: MGL ThermoFluor assay - mutant; format: binding
T2 sequence (Q99685 1-303 L169S/L176S): T1 sequence (Q99685 1-303) with L169S, L176S

MGL = target: T3, MGL (Rattus norvegicus, UniProt Q8R431); test: 2-AG accumulation assay in rat brain homogenate; format: biochemical; details: rat brain homogenate, 2-AG accumulation as percent of vehicle; for 2-AG accumulation, % of vehicle control at 0.1 µM: compound 0.1 μM, read-out: Rat Brain 2AG % VehCntrl (%) @ 0.1 μM; for 2-AG accumulation, % of vehicle control at 1 µM: compound 1 μM, read-out: Rat Brain 2AG % VehCntrl (%) @ 1 μM; for 2-AG accumulation, % of vehicle control at 10 µM: compound 10 μM, read-out: Rat Brain 2AG % VehCntrl (%) @ 10 μM
T3 construct: one g rat brain was homogenized using a Polytron homogenizer; from tissue; host or cells: rat brain homogenate
T3 sequence (Q8R431 1-303): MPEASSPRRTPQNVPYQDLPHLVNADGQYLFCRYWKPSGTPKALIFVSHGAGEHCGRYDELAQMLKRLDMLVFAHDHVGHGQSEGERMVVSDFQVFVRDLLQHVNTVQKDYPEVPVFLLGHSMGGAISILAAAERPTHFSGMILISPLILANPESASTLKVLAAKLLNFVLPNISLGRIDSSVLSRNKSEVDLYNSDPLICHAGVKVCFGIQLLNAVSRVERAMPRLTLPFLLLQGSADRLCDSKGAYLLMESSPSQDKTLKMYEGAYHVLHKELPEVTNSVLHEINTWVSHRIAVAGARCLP

[2] = system: CFA-induced paw radiant heat hypersensitivity; test: CFA-induced paw radiant heat hypersensitivity; format: in vivo, rat; details: Rattus norvegicus, po, 30 mg/kg p.o., HPβCD, last time point 180 or 300 min
Description: Each rat was placed in a test chamber on a warm glass surface and allowed to acclimate for approximately 10 min. A radiant thermal stimulus (beam of light) was then focused through the glass onto the plantar surface of each hind paw in turn. The thermal stimulus was automatically shut off by a photoelectric relay when the paw was moved or when the cut-off time was reached (20 sec for radiant heat at ˜5 amps). An initial (baseline) response latency to the thermal stimulus was recorded for each animal prior to the injection of complete Freund's adjuvant (CFA). […] Immediately following the post-CFA latency assessment, the indicated test compound or vehicle was administered orally.
The percent reversal (% R) of hypersensitivity was calculated in one of two different ways: 1) using group mean values or 2) using individual animal values. More specifically:
Method 2. For some compounds, the % R of hypersensitivity was calculated separately for each animal according to the following formula: % reversal=[(individual treatment response−individual CFA response)/(individual baseline response−individual CFA response)]×100. Results are given as a mean of the maximum % reversal values calculated for each individual animal.

[3] = ThermoFluor concentration-response, read-out: MGL mutant ThermoFluor Kd
[4] = group mean values, read-out: CFA thermal hypersensitivity Method 1: peak % reversal
[5] = individual animal values, read-out: CFA thermal hypersensitivity Method 2: peak % reversal
[6] = ThermoFluor thermal stability binding assay, read-out: MGL mutant ThermoFluor Kd

SMILES: O=C(c1ccccc1)N1CCN(C2CN(C(=O)c3ccc(-c4ccccc4)cc3)C2)CC1 [Cpd 5, 1-[1-(Biphenyl-4-ylcarbonyl)azetidin-3-yl]-4-(phenylcarbonyl)piperazine]
- IC50 [1]: 523 nM
- Kd (mutant MGL; [3]): 0.0548 µM
- 2-AG accumulation, % of vehicle control at 0.01 µM (MGL; compound 0.01 μM, read-out: Rat Brain 2AG % VehCntrl (%) @ 0.01 μM): 122%
- 2-AG accumulation, % of vehicle control at 0.1 µM (MGL): 123%
- 2-AG accumulation, % of vehicle control at 1 µM (MGL): 156%
- 2-AG accumulation, % of vehicle control at 10 µM (MGL): 279%
- inhibition in vivo at 30 mg/kg [2, 4]: 96.6%
- inhibition in vivo at 30 mg/kg [2, 5]: 100%

SMILES: O=C(c1ccc(-c2ccccc2)cc1)N1CC(N2CCN(C(=O)c3cscn3)CC2)C1 [Cpd 7, 1-[1-(Biphenyl-4-ylcarbonyl)azetidin-3-yl]-4-(1,3-thiazol-4-ylcarbonyl)piperazine]
- IC50 [1]: 131 nM
- Kd (mutant MGL; [3]): 0.0466 µM
- 2-AG accumulation, % of vehicle control at 0.1 µM (MGL): 216%
- 2-AG accumulation, % of vehicle control at 1 µM (MGL): 238%
- 2-AG accumulation, % of vehicle control at 10 µM (MGL): 568%
- inhibition in vivo at 30 mg/kg [2, 4]: 77.8%
- inhibition in vivo at 30 mg/kg [2, 5]: 76.2%

SMILES: O=C(c1ccccc1)N1CCN(C2CN(C(=O)c3ccc(-c4ccc(Cl)c(C(F)(F)F)c4)cc3)C2)CC1 [Cpd 232, 1-(1-{[4′-Chloro-3′-(trifluoromethyl)biphenyl-4-yl]carbonyl}azetidin-3-yl)-4-(phenylcarbonyl)piperazine]
- IC50 [1]: 82.9 nM
- 2-AG accumulation, % of vehicle control at 1 µM (MGL): 152%
- 2-AG accumulation, % of vehicle control at 10 µM (MGL): 427%
- inhibition in vivo at 30 mg/kg [2, 4]: 9.6%
- inhibition in vivo at 30 mg/kg [2, 5]: 8%

SMILES: O=C(c1ccc2oc(-c3ccccc3)nc2c1)N1CC(N2CCN(C(=O)c3nccs3)CC2)C1 [Cpd 317, 2-Phenyl-5-({3-[4-(1,3-thiazol-2-ylcarbonyl)piperazin-1-yl]azetidin-1-yl}carbonyl)-1,3-benzoxazole]
- 2-AG accumulation, % of vehicle control at 1 µM (MGL): 417%
- inhibition in vivo at 30 mg/kg [2, 4]: 43%

SMILES: O=C(c1nccs1)N1CCN(C2CN(C(=O)c3sc4cc(Br)ccc4c3Cl)C2)CC1 [Cpd 326, 1-{1-[(6-Bromo-3-chloro-1-benzothiophen-2-yl)carbonyl]azetidin-3-3yl}-4-(1,3-thiazol-2-ylcarbonyl)piperazine]
- IC50 [1]: < 5 nM
- Kd (mutant MGL; [6]): 0.0004 µM
- inhibition in vivo at 30 mg/kg [2, 4]: 17.3%
- inhibition in vivo at 30 mg/kg [2, 5]: 17.5%

SMILES: O=C(c1nccs1)N1CCN(C2CN(C(=O)c3sc4c(F)c(C(F)(F)F)ccc4c3Cl)C2)CC1 [Cpd 650]
- IC50 [1]: 6 nM
- 2-AG accumulation, % of vehicle control at 1 µM (MGL): 960%
- inhibition in vivo at 30 mg/kg [2, 4]: 29.9%

SMILES: O=C(c1nccs1)N1CCN(C2CN(C(=O)c3sc4cc(C(F)(F)F)ccc4c3F)C2)CC1 [Cpd 895, 1-(1-{[3-Fluoro-6-(trifluoromethyl)-1-benzothiophen-2-yl]carbonyl}azetidin-3-yl)-4-(1,3-thiazol-2-ylcarbonyl)piperazine]
- IC50 [1]: < 5 nM
- inhibition in vivo at 30 mg/kg [2, 4]: 23.4%

SMILES: Cc1c(C(=O)N2CC(N3CCN(C(=O)c4nccs4)CC3)C2)sc2cc(C(F)(F)F)ccc12 [Cpd 899, 1-(1-{[3-Methyl-6-(trifluoromethyl)-1-benzothiophen-2-yl]carbonyl}azetidin-3-yl)-4-(1,3-thiazol-2-ylcarbonyl)piperazine]
- IC50 [1]: < 5 nM
- inhibition in vivo at 30 mg/kg [2, 4]: 80.1%

SMILES: Cc1cn(-c2ccccc2)c2ccc(C(=O)N3CC(N4CCN(C(=O)c5nccs5)CC4)C3)cc12 [Cpd 1054]
- IC50 [1]: 5 nM
- Kd (mutant MGL; [6]): 0.001 µM
- Kd (mutant MGL; ThermoFluor, compound concentration measured by qNMR, read-out: MGL mutant ThermoFluor qKd (μM) (using qNMR conc.)): 0.001 µM
- inhibition in vivo at 30 mg/kg [2, 4]: 27.6%

SMILES: Cc1cn(-c2ccc(F)cc2)c2ccc(C(=O)N3CC(N4CCN(C(=O)c5nccs5)CC4)C3)cc12 [Cpd 1088, 1-(4-Fluorophenyl)-3-methyl-5-({3-[4-(1,3-thiazol-2-ylcarbonyl)piperazin-1-yl]azetidin-1-yl}carbonyl)-1H-indole]
- Kd (mutant MGL; [6]): 0.001 µM
- 2-AG accumulation, % of vehicle control at 1 µM (MGL): 760%
- inhibition in vivo at 30 mg/kg [2, 4]: 35.3%

SMILES: O=C(c1ccc2c(cnn2-c2ccc(F)c(F)c2)c1)N1CC(N2CCN(C(=O)c3nccs3)CC2)C1 [Cpd 1106, 1-(3,4-Difluorophenyl)-5-({3-[4-(1,3-thiazol-2-ylcarbonyl)piperazin-1-yl]azetidin-1-yl}carbonyl)-1H-indazole]
- 2-AG accumulation, % of vehicle control at 1 µM (MGL): 784%
- inhibition in vivo at 30 mg/kg [2, 4]: 45%

SMILES: O=C(c1ccc2nc(-c3ccccc3)sc2c1)N1CC(N2CCN(C(=O)c3nccs3)CC2)C1 [Cpd 1125, 2-Phenyl-6-({3-[4-(1,3-thiazol-2-ylcarbonyl)piperazin-1-yl]azetidin-1-yl}carbonyl)-1,3-benzothiazole]
- IC50 [1]: 19 nM
- Kd (mutant MGL; [3]): 0.037 µM
- inhibition in vivo at 30 mg/kg [2, 4]: 64.5%
- inhibition in vivo at 30 mg/kg [2, 5]: 90.3%

SMILES: Cn1cc(-c2ccccc2)c2ccc(C(=O)N3CC(N4CCN(C(=O)c5nccs5)CC4)C3)cc21 [Cpd 1132, 1-Methyl-3-phenyl-6-({3-[4-(1,3-thiazol-2-ylcarbonyl)piperazin-1-yl]azetidin-1-yl}carbonyl)-1H-indole]
- IC50 [1]: 23 nM
- Kd (mutant MGL; [3]): 0.002 µM
- inhibition in vivo at 30 mg/kg [2, 4]: 0%

SMILES: O=C(c1ccc2c(ccn2-c2ncccn2)c1)N1CC(N2CCN(C(=O)c3nccs3)CC2)C1 [Cpd 1174, 1-Pyrimidin-2-yl-5-({3-[4-(1,3-thiazol-2-ylcarbonyl)piperazin-1-yl]azetidin-1-yl}carbonyl)-1H-indole]
- IC50 [1]: 66 nM
- Kd (mutant MGL; [3]): 0.015 µM
- inhibition in vivo at 30 mg/kg [2, 4]: 13.6%

SMILES: O=C(c1ccc2c(-c3cccc(C(F)(F)F)c3)c[nH]c2c1)N1CC(N2CCN(C(=O)c3nccs3)CC2)C1 [Cpd 1341, 6-({3-[4-(1,3-Thiazol-2-ylcarbonyl)piperazin-1-yl]azetidin-1-yl}carbonyl)-3-[3-(trifluoromethyl)phenyl]-1H-indole]
- IC50 [1]: < 5 nM
- Kd (mutant MGL; [3]): 0.001 µM
- inhibition in vivo at 30 mg/kg [2, 4]: 7.5%

SMILES: O=C(c1ccc2c(ccn2-c2ccc(C(F)(F)F)cc2)c1)N1CC(N2CCN(C(=O)c3nccs3)CC2)C1 [Cpd 1357, 5-({3-[4-(1,3-Thiazol-2-ylcarbonyl)piperazin-1-yl]azetidin-1-yl}carbonyl)-1-[4-(trifluoromethyl)phenyl]-1H-indole]
- IC50 [1]: < 5 nM
- Kd (mutant MGL; [3]): 0.002 µM
- inhibition in vivo at 30 mg/kg [2, 4]: 51%
- inhibition in vivo at 30 mg/kg [2, 5]: 46.1%

SMILES: O=C(c1ccc2c(ccn2-c2ccc(F)cc2)c1)N1CC(N2CCN(C(=O)c3cscn3)CC2)C1 [Cpd 1358, 1-(4-Fluorophenyl)-5-({3-[4-(1,3-thiazol-4-ylcarbonyl)piperazin-1-yl]azetidin-1-yl}carbonyl)-1H-indole]
- IC50 [1]: < 5 nM
- Kd (mutant MGL; [3]): 0.007 µM
- inhibition in vivo at 30 mg/kg [2, 4]: 25.4%

SMILES: O=C(c1ccc2c(ccn2-c2ccc(C(F)(F)F)cc2)c1)N1CC(N2CCN(C(=O)c3cscn3)CC2)C1 [Cpd 1359, 5-({3-[4-(1,3-Thiazol-4-ylcarbonyl)piperazin-1-yl]azetidin-1-yl}carbonyl)-1-[4-(trifluoromethyl)phenyl]-1H-indole]
- IC50 [1]: < 5 nM
- Kd (mutant MGL; [3]): 0.008 µM
- inhibition in vivo at 30 mg/kg [2, 4]: 5.1%
- inhibition in vivo at 30 mg/kg [2, 5]: 12.7%
